# In patent publication US20240150300A1, “S-CONFIGURATION-CONTAINING AMINO BENZAMIDE PYRIDAZINONE COMPOUND, PREPARATION METHOD THEREFOR, AND PHARMACEUTICAL COMPOSITION AND APPLICATION THEREOF” (SHANGHAI INSTITUTE OF MATERIA MEDICA, CHINESE ACADEMY OF …, priority 2021, published 2024):
# Key:
# SKM-1 cells = experiment: Antiproliferative activity, CCK-8, SKM-1; assay type: cell-based, human; settings: 72 h
# Method: (§1) The tumor cells used were purchased from commercial cell banks (HCT116 purchased from ATCC, SKM 1 purchased from JCRB). The growth inhibition of cells was detected using the CCK-8 method. The specific steps were as follows. Cells in the logarithmic growth phase were seeded into a 96 well culture plate at an appropriate density, with 90 μL/well. After overnight cultivation, different concentrations of drugs were added for treatment for 72 h, with each concentration in triplicate, and corresponding concentration of vehicle control and cell-free blank wells were also set. After the treatment, 10 μL of CCK-8 was added to each well and the plate was incubated in an incubator for 2-4 hours, and the optical density (OD value) at a wavelength of 450 nm was measured using a SpectraMax 190 microplate reader. […] The experiment was repeated twice, and the mean value and SD were calculated.
# With reference to HCT-116 cell proliferation inhibition test method, the inhibitory activity of the compounds on the proliferation of human myelodysplastic syndrome cell SKM-1 was tested.
# HDAC3 = HDAC3 (Homo sapiens (Human), UniProt O15379); experiment: HDAC subtype inhibitory activity (HTRF), HDAC3; assay type: biochemical
# HDAC3, sequence (O15379 whole entry): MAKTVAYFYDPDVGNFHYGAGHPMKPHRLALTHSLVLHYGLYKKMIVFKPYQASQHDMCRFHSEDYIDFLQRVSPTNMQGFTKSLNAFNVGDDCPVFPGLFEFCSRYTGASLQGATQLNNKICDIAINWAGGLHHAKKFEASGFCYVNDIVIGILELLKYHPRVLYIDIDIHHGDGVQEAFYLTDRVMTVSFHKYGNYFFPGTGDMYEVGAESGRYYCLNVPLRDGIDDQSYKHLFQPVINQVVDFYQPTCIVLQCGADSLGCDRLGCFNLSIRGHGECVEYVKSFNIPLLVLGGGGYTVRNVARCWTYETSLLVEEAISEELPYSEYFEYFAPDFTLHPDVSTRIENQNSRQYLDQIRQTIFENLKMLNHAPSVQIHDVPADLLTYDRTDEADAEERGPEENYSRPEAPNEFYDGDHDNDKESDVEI
# HDAC3, sequence (Q9Y618 395-489 partner): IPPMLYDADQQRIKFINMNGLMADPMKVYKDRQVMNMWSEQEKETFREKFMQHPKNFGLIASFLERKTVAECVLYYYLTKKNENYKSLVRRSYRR
# Method: Human recombinant HDAC family proteins with His and GST tags were expressed using insect baculovirus expression system, and a biologically active HDAC family recombinant protein was obtained through Ni affinity column protein purification. HTRF detection method was used with H3(1-21) K9Ac biotin as the substrate. […] Briefly, 20 μl of the activity testing system included the HDAC substrate (0.2 μM. 4 μl), the Human Recombinant Protein HDAC (2-5 ng)/μl.
# CMK = experiment: Antiproliferative activity, CCK-8, CMK; assay type: cell-based; settings: Down syndrome acute megakaryocyte leukemia, read-out: Cytotoxicity (IC50 μM)
# Method: as §1
# (§2) The testing method for antiproliferative activity was the same as that mentioned in Pharmacological Experiment Example 2, and the results are shown in Table 4 and FIGS. 2-3.
# EoL-1 = experiment: Antiproliferative activity, CCK-8, EoL-1; assay type: cell-based; settings: EoL-1, Chronic eosinophilic leukemia; read-out: Cytotoxicity (IC50 μM)
# Method: as §1, §2
# OCI-LY-3 = experiment: Antiproliferative activity, CCK-8, OCI-LY-3; assay type: cell-based; settings: OCI-LY-3, Diffuse large B-cell lymphoma; read-out: Cytotoxicity (IC50 μM)
# Method: as §1, §2
# U-2932 = experiment: Antiproliferative activity, CCK-8, U-2932; assay type: cell-based; settings: U-2932, Diffuse large B-cell lymphoma; read-out: Cytotoxicity (IC50 μM)
# Method: as §1, §2
# HH = experiment: Antiproliferative activity, CCK-8, HH; assay type: cell-based; settings: Primary cutaneous T-cell non Hodgkin lymphoma, read-out: Cytotoxicity (IC50 μM)
# Method: as §1, §2
# RL = experiment: Antiproliferative activity, CCK-8, RL; assay type: cell-based; settings: Diffuse large B-cell lymphoma, read-out: Cytotoxicity (IC50 μM)
# Method: as §1, §2
# NU-DHL-1 = experiment: Antiproliferative activity, CCK-8, NU-DHL-1; assay type: cell-based; settings: NU-DHL-1, Diffuse large B-cell lymphoma; read-out: Cytotoxicity (IC50 μM)
# Method: as §1, §2
# WILL-2 = experiment: Antiproliferative activity, CCK-8, WILL-2; assay type: cell-based; settings: WILL-2, Diffuse large B-cell lymphoma; read-out: Cytotoxicity (IC50 μM)
# Method: as §1, §2
# Z138 = experiment: Antiproliferative activity, CCK-8, Z138; assay type: cell-based; settings: Z138, Human mantle cell lymphoma; read-out: Cytotoxicity (IC50 μM)
# Method: as §1, §2
# RS4; 11 = experiment: Antiproliferative activity, CCK-8, RS4; 11; assay type: cell-based; settings: 11, Acute lymphoblastic leukemia, read-out: Cytotoxicity (IC50 μM)
# Method: as §1, §2
# MO-91 = experiment: Antiproliferative activity, CCK-8, MO-91; assay type: cell-based; settings: MO-91, Acute myeloid leukemia; read-out: Cytotoxicity (IC50 μM)
# Method: as §1, §2
# SU-DHL-8 = experiment: Antiproliferative activity, CCK-8, SU-DHL-8; assay type: cell-based; settings: SU-DHL-8, Diffuse large B-cell lymphoma; read-out: Cytotoxicity (IC50 μM)
# Method: as §1, §2
# K-562 = experiment: Antiproliferative activity, CCK-8, K-562; assay type: cell-based; settings: K-562, Chronic myeloid leukemia; read-out: Cytotoxicity (IC50 μM)
# Method: as §1, §2
# NOMO-1 = experiment: Antiproliferative activity, CCK-8, NOMO-1; assay type: cell-based; settings: NOMO-1, Acute monocytic leukemia; read-out: Cytotoxicity (IC50 μM)
# Method: as §1, §2
# HDLM-2 = experiment: Antiproliferative activity, CCK-8, HDLM-2; assay type: cell-based; settings: HDLM-2, Hodgkin's lymphoma; read-out: Cytotoxicity (IC50 μM)
# Method: as §1, §2
# H9 = experiment: Antiproliferative activity, CCK-8, H9; assay type: cell-based; settings: H9, Human T lymphocyte line; read-out: Cytotoxicity (IC50 μM)
# Method: as §1, §2
# HuT78 = experiment: Antiproliferative activity, CCK-8, HuT78; assay type: cell-based; settings: HuT78, Human T-lymphocytic leukemia; read-out: Cytotoxicity (IC50 μM)
# Method: as §1, §2
# TMD8 = experiment: Antiproliferative activity, CCK-8, TMD8; assay type: cell-based; settings: TMD8, Diffuse large B-cell lymphoma; read-out: Cytotoxicity (IC50 μM)
# Method: as §1, §2
# PC-9 = experiment: Antiproliferative activity, CCK-8, PC-9; assay type: cell-based; settings: PC-9, Lung cancer; read-out: Cytotoxicity (IC50 μM)
# Method: as §1, §2
# SNU-16 = experiment: Antiproliferative activity, CCK-8, SNU-16; assay type: cell-based; settings: SNU-16, gastric cancer; read-out: Cytotoxicity (IC50 μM)
# Method: as §1, §2
# SK-BR-3 = experiment: Antiproliferative activity, CCK-8, SK-BR-3; assay type: cell-based; settings: SK-BR-3, Breast cancer; read-out: Cytotoxicity (IC50 μM)
# Method: as §1, §2
# MDA-MB-453 = experiment: Antiproliferative activity, CCK-8, MDA-MB-453; assay type: cell-based; settings: MDA-MB-453, Breast cancer; read-out: Cytotoxicity (IC50 μM)
# Method: as §1, §2
# A375 = experiment: Antiproliferative activity, CCK-8, A375; assay type: cell-based, human; settings: A375, Melanoma; read-out: Cytotoxicity (IC50 μM)
# Method: as §1, §2
# A2058 = experiment: Antiproliferative activity, CCK-8, A2058; assay type: cell-based; settings: A2058, Melanoma; read-out: Cytotoxicity (IC50 μM)
# Method: as §1, §2
# VMM39 = experiment: Antiproliferative activity, CCK-8, VMM39; assay type: cell-based; settings: VMM39, Melanoma; read-out: Cytotoxicity (IC50 μM)
# Method: as §1, §2
# SK-MEL-2 = experiment: Antiproliferative activity, CCK-8, SK-MEL-2; assay type: cell-based; settings: SK-MEL-2, Melanoma; read-out: Cytotoxicity (IC50 μM)
# Method: as §1, §2
# [1] = tested on: human myelodysplastic syndrome cells SKM-1 transplanted tumor; experiment: SKM-1 NOD/SCID mice transplanted tumor model; assay type: in vivo; settings: oral 60 mg/kg qd, 18 days
compound,measurement,setting,value
C[C@@H](c1ccc(C(=O)Nc2ccc(F)cc2N)cc1)n1nc(-c2ccc(CN(C)C)cc2)ccc1=O [Compound I-1],IC50,SKM-1 cells,140 ± 8 nM
same,IC50,HDAC3,420 ± 105 nM
same,IC50,CMK,0.131 ± 0.011 µM
same,IC50,EoL-1,0.158 µM
same,IC50,OCI-LY-3,0.198 ± 0.048 µM
same,IC50,U-2932,0.214 ± 0.001 µM
same,IC50,HH,0.219 ± 0.093 µM
same,IC50,RL,0.24 ± 0.019 µM
same,IC50,NU-DHL-1,0.243 µM
same,IC50,WILL-2,0.347 ± 0.217 µM
same,IC50,Z138,0.363 ± 0.046 µM
same,IC50,RS4; 11,0.412 ± 0.129 µM
same,IC50,MO-91,0.427 ± 0.163 µM
same,IC50,SU-DHL-8,0.443 ± 0.185 µM
same,IC50,K-562,0.473 ± 0.171 µM
same,IC50,NOMO-1,0.523 ± 0.12 µM
same,IC50,HDLM-2,0.647 ± 0.404 µM
same,IC50,H9,0.649 ± 0.044 µM
same,IC50,HuT78,0.769 ± 0.461 µM
same,IC50,TMD8,0.807 ± 0.142 µM
same,IC50,PC-9,0.461 ± 0.034 µM
same,IC50,SNU-16,0.675 ± 0.064 µM
same,IC50,SK-BR-3,0.72 ± 0.032 µM
same,IC50,MDA-MB-453,0.498 ± 0.036 µM
same,IC50,A375,0.556 ± 0.018 µM
same,IC50,A2058,0.562 ± 0.011 µM
same,IC50,VMM39,0.46 ± 0.032 µM
same,IC50,SK-MEL-2,0.799 ± 0.042 µM
same,relative tumor proliferation rate (T/C),[1],11.78%
